# Assay results taken from patent publication US20020025331A1, “Cosmetic compositions containing substituted amine derivatives” (priority 2000, published 2002).
# Where two headings read alike, the source gives them in different places.
# System: human sebocytes
# Assay: Sebum suppression in cultured human sebocytes (14C-acetate incorporation), alone or with retinol
# Assay type: cell-based
# Conditions: for sebum suppressive activity (in words): agent alone, summary of Tables 1-6
# Description: Compounds A through E were tested for their potential to suppress sebum expression, alone or in the presence of a retinoid.
# Secondary cultures of human sebocytes obtained from an adult […] were grown in 48-well tissue culture plates (Costar Corp.; Cambridge, MA) or 96-well tissue culture plates (Packard Co.; Meriden, CT) until confluent.
# Sebocyte growth medium consisted of Clonetics Keratinocyte Basal Medium (KBM) supplemented with 14 μg/ml bovine pituitary extract, 0.4 μg/ml hydrocortisone, 5 μg/ml insulin, […], 1.2 ×10^-10 M cholera toxin, 100 units/ml penicillin, and 100 μg/ml streptomycin.
# All cultures were incubated at 37° C. in the presence of 7.5% CO2. Medium was changed three times per week.
# On the day of experimentation, the growth medium was removed and the sebocytes washed three times with sterile Dulbecco's Modified Eagle Medium (DMEM; phenol red free). Fresh DMEM was added to each sample (duplicates, triplicates, or quadruplicates depending on the experiment) with 5 microliter of test agent solubilized in ethanol either alone or in the presence of one or 10 micromolar of retinol. Controls consisted of addition of ethanol alone, retinol alone, or phenol red, which has estrogen-like activity and is included as a positive control.
# Each plate was returned to the incubator for 20 hours followed by the addition of 14C-acetate buffer (5 mM final concentration, 56 mCi/mmol specific activity). Sebocytes were returned to the incubator for four hours after which each culture was rinsed three times with phosphate buffered saline to remove unbound label. Radioactive label remaining in the sebocytes was harvested and counted using a Beckman scintillation counter.
compound,measurement,setting,value
CSc1ccc(NC(C)CC(c2ccccc2)c2c(O)c3ccccc3oc2=O)cc1 (centres unmarked) [Compound A],% of Control,"Experiment A, 1 μM test agent + 10 μM Retinol",94.3%
same,% of Control,"Experiment A, 1 μM test agent alone",93.8%
same,% of Control,"Experiment A, 10 μM test agent + 10 μM Retinol",88.6%
same,% of Control,"Experiment A, 10 μM test agent alone",78.1%
same,% of Control,"Experiment A, 100 μM test agent + 10 μM Retinol",6.2%
same,% of Control,"Experiment A, 100 μM test agent alone",12.5%
same,% of Control,"Experiment B (n = 3), 1 μM test agent + 1 μM Retinol",93.3%
same,% of Control,"Experiment B (n = 3), 1 μM test agent + 10 μM Retinol",85.4%
same,% of Control,"Experiment B (n = 3), 1 μM test agent alone",102.1%
same,% of Control,"Experiment B (n = 3), 10 μM test agent + 1 μM Retinol",80.2%
same,% of Control,"Experiment B (n = 3), 10 μM test agent + 10 μM Retinol",78.6%
same,% of Control,"Experiment B (n = 3), 10 μM test agent alone",89.4%
same,% of Control,"Experiment B (n = 3), 100 μM test agent + 1 μM Retinol",19.7%
same,% of Control,"Experiment B (n = 3), 100 μM test agent + 10 μM Retinol",26.5%
same,% of Control,"Experiment B (n = 3), 100 μM test agent alone",23.5%
same,sebum suppressive activity (in words),,had sebum suppressive activity
COc1ccc(OC)c(C(C)NC/C=C(\C)CCC=C(C)C)c1 (centres unmarked) [Compound C],% of Control,"96 Well Plate (n = 2), 10 μM test agent + 1 μM Retinol",45.2%
same,% of Control,"96 Well Plate (n = 2), 10 μM test agent alone",72.3%
same,% of Control,"96 Well Plate (n = 2), 50 μM test agent + 1 μM Retinol",0.3%
same,% of Control,"96 Well Plate (n = 2), 50 μM test agent alone",34.2%
same,sebum suppressive activity (in words),,had sebum suppressive activity
same,sebum suppressive activity when combined with retinol / a retinoid (in words),in the presence of a retinoid (retinol),improved sebum suppressive activity
"O=S1(=O)OC(c2ccc(O)cc2)(c2ccc(O)cc2)c2ccccc21 [Phenol Red, reference compound]",activity at 28 µM,"Homo sapiens, Experiment B (n = 3), 28 μM alone, read-out: % of Control",86.4%
same,activity at 280 µM,"Homo sapiens, Experiment B (n = 3), 280 μM alone, read-out: % of Control",52.2%
same,% Reduction,"Table 3 (n = 4), 28 μM alone",74.7%
"CC1=C(/C=C/C(C)=C/C=C/C(C)=C/C=O)C(C)(C)CCC1 [Retinal, reference compound]",activity at 1 µM,"Homo sapiens, Experiment B (n = 3), 1 μM test agent alone, read-out: % of Control",104%
same,activity at 10 µM,"Homo sapiens, Experiment B (n = 3), 10 μM test agent alone, read-out: % of Control",101%
"CC1=C(/C=C/C(C)=C/C=C/C(C)=C/CO)C(C)(C)CCC1 [Retinol, reference compound]",activity at 10 µM,"Homo sapiens, Experiment A, 10 μM test agent alone, read-out: % of Control",98.3%
same,sebum suppressive activity (in words),,inactive
